According to patent publication US11858942B2, “Triazolotriazine derivatives as A2A receptor antagonists” (ZHEJIANG VIMGREEN PHARMACEUTICALS, LTD., priority 2018, dated 2024):

Molecular target: T1, A2AR (hADORA2A-HEK293 cells) (Homo sapiens, UniProt P29274)
T1 construct: expressed in transfected cells; host or cells: HEK293 (hADORA2A-HEK293)
Test: functional cAMP production assay (NECA-stimulated cAMP production, TR-FRET)
Format: cell-based
Settings: inhibition of NECA (EC80)-stimulated cAMP production in A2AR-expressing HEK293 cells; read-out: A2AR Potency
Procedure: The antagonistic activities of the triazolotriazine derivatives of the present invention were measured in a functional cAMP production assay. The assay consists of NECA stimulation of cAMP production and its inhibition by A2AR antagonists in A2AR-expressing HEK293 cells (hADORA2A-HEK293). All cells were cultured in complete medium at 37° C. in 5% CO2. The cells were detached with pancreatin and collected at 200 g for 5 min. After resuspending the cells in fresh complete medium, the cell viability is counted using the trypan blue exclusion method. […] After the cells were diluted with Hank's buffered saline solution containing HEPES (5 mM), BSA stabilizer (0.1%) and […] Rolipram (10 μM), cells were loaded into white opaque 384-well plates (˜500 cells/well, 10 μl/well) and incubated with test compound at a suitable concentration range (11 concentrations) for 20 min at room temperature. Then the A2A receptor agonist NECA (final concentration=EC80, which was determined in the same experiment slightly earlier) was added to the sample and the mixture was incubated again for 30 min at 37° C. […] The inhibition rate (%) was calculated according to the following formula. The IC50 values were calculated from concentration−inhibition (%) curves after log transformation.

T1 sequence (P29274 whole entry): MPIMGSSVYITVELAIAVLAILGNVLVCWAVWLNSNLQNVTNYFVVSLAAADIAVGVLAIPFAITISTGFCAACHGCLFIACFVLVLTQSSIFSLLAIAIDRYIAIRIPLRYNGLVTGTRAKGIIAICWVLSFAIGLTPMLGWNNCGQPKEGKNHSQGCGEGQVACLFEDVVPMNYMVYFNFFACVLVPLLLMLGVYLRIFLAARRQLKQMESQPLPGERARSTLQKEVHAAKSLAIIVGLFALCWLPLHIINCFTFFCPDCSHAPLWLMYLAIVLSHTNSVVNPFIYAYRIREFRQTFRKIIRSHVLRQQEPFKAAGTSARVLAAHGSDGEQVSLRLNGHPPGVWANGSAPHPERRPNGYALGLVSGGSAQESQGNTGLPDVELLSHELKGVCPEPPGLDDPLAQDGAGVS

| Compound | IC50 |
| --- | --- |
| Nc1nc(NCCc2ccc(C(=O)NCCN3CCCC3)cc2)nc2nc(-c3ccco3)nn12 [Example 11, 4-(2-((7-Amino-2-(furan-2-yl)-[1,2,4]triazolo[1,5-a][1,3,5]triazin-5-yl)amino)ethyl)-N-(2-(pyrrolidin-1-yl)ethyl)benzamide] | 43.4 nM |
| Nc1nc(NCCc2ccc(C(=O)NCCN3CCOCC3)cc2)nc2nc(-c3ccco3)nn12 [Example 12, 4-(2-((7-Amino-2-(furan-2-yl)-[1,2,4]triazolo[1,5-a][1,3,5]triazin-5-yl)amino)ethyl)-N-(2-morpholinoethyl)benzamide] | 27.1 nM |
| CN1CCN(CCNC(=O)c2ccc(CCNc3nc(N)n4nc(-c5ccco5)nc4n3)cc2)CC1 [Example 13, 4-(2-((7-Amino-2-(furan-2-yl)-[1,2,4]triazolo[1,5-a][1,3,5]triazin-5-yl)amino)ethyl)-N-(2-(4-methylpiperazin-1-yl)ethyl)benzamide] | 33 nM |
| Nc1nc(NCCc2ccc(C(=O)N3CCC(F)(F)CC3)cc2)nc2nc(-c3ccco3)nn12 [Example 16, (4-(2-((7-Amino-2-(furan-2-yl)-[1,2,4]triazolo[1,5-a][1,3,5]triazin-5-yl)amino)ethyl)phenyl)-(4,4-difluoropiperidin-1-yl)methanone] | 24 nM |
| Nc1nc(NCCc2ccc(C(=O)N3CCC(F)CC3)cc2)nc2nc(-c3ccco3)nn12 [Example 17, (4-(2-((7-Amino-2-(furan-2-yl)-[1,2,4]triazolo[1,5-a][1,3,5]triazin-5-yl)amino)ethyl)phenyl)-(4-fluoropiperidin-1-yl)methanone] | 7.54 nM |
| Nc1nc(NCCc2ccc3cnccc3c2)nc2nc(-c3ccco3)nn12 [Example 27, 2-(Furan-2-yl)-N5-(2-(isoquinolin-6-yl)ethyl)-[1,2,4]triazolo[1,5-a][1,3,5]triazine-5,7-diaminee] | 9.08 nM |
| CNC(=O)c1ccc(CCNc2nc(N)n3nc(-c4ccco4)nc3n2)cc1 [Example 35, 4-(2-(7-Amino-2-(furan-2-yl)-[1,2,4]triazolo[1,5-a][1,3,5]triazin-5-ylamino)ethyl)-N-methylbenzamide] | 13.8 nM |
| NC(=O)c1ccc(CCNc2nc(N)n3nc(-c4ccco4)nc3n2)cc1 [Example 36, 4-(2-(7-Amino-2-(furan-2-yl)-[1,2,4]triazolo[1,5-a][1,3,5]triazin-5-ylamino)ethyl)benzamide] | 13.3 nM |
| Nc1nc(NCCc2ccc(C(=O)N3CCCCC3)cc2)nc2nc(-c3ccco3)nn12 [Example 37, (4-(2-(7-Amino-2-(furan-2-yl)-[1,2,4]triazolo[1,5-a][1,3,5]triazin-5-ylamino)ethyl)-phenyl)(piperidin-1-yl)methanone] | 6 nM |
| CC(C)N(C)C(=O)c1ccc(CCNc2nc(N)n3nc(-c4ccco4)nc3n2)cc1 [Example 42, 4-(2-(7-Amino-2-(furan-2-yl)-[1,2,4]triazolo[1,5-a][1,3,5]triazin-5-ylamino)ethyl)-N-isopropyl-N-methylbenzamide] | 19.3 nM |
| CC(C)(CO)NC(=O)c1ccc(CCNc2nc(N)n3nc(-c4ccco4)nc3n2)cc1 [Example 43, 4-(2-(7-Amino-2-(furan-2-yl)-[1,2,4]triazolo[1,5-a][1,3,5]triazin-5-ylamino)ethyl)-N-(1-hydroxy-2-methylpropan-2-yl)benzamide] | 17.1 nM |
| Nc1nc(NCCc2ccc(C(=O)N3CCc4ncccc4C3)cc2)nc2nc(-c3ccco3)nn12 [Example 45, (4-(2-(7-Amino-2-(furan-2-yl)-[1,2,4]triazolo[1,5-a][1,3,5]triazin-5-ylamino)ethyl)phenyl)-(7,8-dihydro-1,6-naphthyridin-6(5H)-yl)methanone] | 27.4 nM |
| Nc1nc(NCCc2ccc(-c3nn[nH]n3)cc2)nc2nc(-c3ccco3)nn12 [Example 125, N5-(4-(2H-Tetrazol-5-yl)phenethyl)-2-(furan-2-yl)-[1,2,4]triazolo[1,5-a][1,3,5]triazine-5,7-diamine] | 14.5 nM |
